In US8722849B2, “Polypeptides” (Novo Nordisk A/S, priority 2011, dated 2014):
Starred links: 1 amine or outer side, 2 acyl side, 3 side chain; linkers in the order of their positions; H or OH if unused. Positions of bridges follow the written chain, without caps; N, C: chain ends. Residues, ends and D or L forms follow the SMILES beside them. *: point of attachment. C20 diacid = O=C(O)CCCCCCCCCCCCCCCCCCC(=O)*; C18 diacid = O=C(O)CCCCCCCCCCCCCCCCC(=O)*; γGlu = O=C(O)[C@H](CCC(=O)[*:2])N[*:1]

biological target: T1, human calcitonin receptor (Homo sapiens, UniProt P30988); assay: Assay (II)a functional CRE-luciferase assay, human calcitonin receptor; assay type: cell-based; conditions: Table 7; human calcitonin (CTa) receptor
T1 construct: expressed in transfected cells; host or cells: BHK570
T1 sequence (P30988 25-474): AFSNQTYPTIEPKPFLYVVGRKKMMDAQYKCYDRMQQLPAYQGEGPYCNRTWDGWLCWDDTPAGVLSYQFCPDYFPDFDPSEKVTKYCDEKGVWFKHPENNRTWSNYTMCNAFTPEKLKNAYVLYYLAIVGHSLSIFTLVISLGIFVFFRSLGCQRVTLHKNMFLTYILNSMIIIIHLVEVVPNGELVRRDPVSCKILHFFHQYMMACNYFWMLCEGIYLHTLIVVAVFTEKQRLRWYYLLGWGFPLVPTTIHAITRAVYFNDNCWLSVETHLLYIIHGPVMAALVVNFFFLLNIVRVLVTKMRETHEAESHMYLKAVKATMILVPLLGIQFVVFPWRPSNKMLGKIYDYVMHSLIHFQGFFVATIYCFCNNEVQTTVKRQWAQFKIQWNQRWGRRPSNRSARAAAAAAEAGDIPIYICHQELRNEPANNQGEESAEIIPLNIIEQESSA

Question: Which EC50 does the source give for `CC[C@H](C)[C@H](NC(=O)[C@H](CCC(=O)O)NC(=O)CNC(=O)[C@H](Cc1ccccc1)NC(=O)[C@H](CC(N)=O)NC(=O)[C@H](CC(N)=O)NC(=O)[C@H](CO)NC(=O)[C@H](CO)NC(=O)[C@H](CCCNC(=N)N)NC(=O)[C@H](Cc1c[nH]cn1)NC(=O)[C@H](CC(C)C)NC(=O)[C@H](Cc1ccccc1)NC(=O)[C@H](CCC(=O)O)NC(=O)[C@H](C)NC(=O)[C@H](CC(C)C)NC(=O)[C@H](CCCNC(=N)N)NC(=O)[C@H](CCC(N)=O)NC(=O)[C@@H](NC(=O)[C@H](C)NC(=O)[C@@H]1CSSC[C@H](NC(=O)[C@H](Cc2c[nH]cn2)NC(=O)CC[C@H](NC(=O)CCCCCCCCCCCCCCCCCCC(=O)O)C(=O)O)C(=O)N[C@@H](CC(N)=O)C(=O)N[C@@H]([C@@H](C)O)C(=O)N[C@@H](C)C(=O)N[C@@H]([C@@H](C)O)C(=O)N1)[C@@H](C)O)C(=O)N[C@@H](CC(C)C)C(=O)N[C@@H](CO)C(=O)N[C@@H](CCCNC(=N)N)C(=O)N[C@H](C(=O)N[C@@H](CC(N)=O)C(=O)N[C@H](C(=O)NCC(=O)N[C@@H](CO)C(=O)N[C@@H](CC(N)=O)C(=O)N[C@H](C(=O)N[C@@H](Cc1ccc(O)cc1)C(N)=O)[C@@H](C)O)C(C)C)[C@@H](C)O` [Example 7, N-alpha-[(S)-4-Carboxy-4-(19-carboxynonadecanoylamino)butyryl]-[His1,Glu14,His17,Arg18,Glu25,Ser28,Arg29]-pramlintide] ({C20 diacid-γGlu}-HCNTATCATQRLAEFLHRSSNNFGEILSRTNVGSNTY-NH2; disulfide 2-7 (inferred); C-terminus assumed) here?
Answer: The EC50 was 0.131 nM.

Question: With `CC[C@H](C)[C@H](NC(=O)[C@@H]1CCCN1C(=O)CNC(=O)[C@H](Cc1ccccc1)NC(=O)[C@H](CC(N)=O)NC(=O)[C@H](CC(N)=O)NC(=O)[C@H](CO)NC(=O)[C@H](CO)NC(=O)[C@H](Cc1c[nH]cn1)NC(=O)[C@H](CCCNC(=N)N)NC(=O)[C@H](CC(C)C)NC(=O)[C@H](Cc1ccccc1)NC(=O)[C@H](CCC(=O)O)NC(=O)[C@H](C)NC(=O)[C@H](CC(C)C)NC(=O)[C@H](CCCNC(=N)N)NC(=O)[C@H](CCC(N)=O)NC(=O)[C@@H](NC(=O)[C@H](C)NC(=O)[C@@H]1CSSC[C@H](NC(=O)[C@H](CCCCN)NC(=O)CC[C@H](NC(=O)CCCCCCCCCCCCCCCCCCC(=O)O)C(=O)O)C(=O)N[C@@H](CC(N)=O)C(=O)N[C@@H]([C@@H](C)O)C(=O)N[C@@H](C)C(=O)N[C@@H]([C@@H](C)O)C(=O)N1)[C@@H](C)O)C(=O)N[C@@H](CC(C)C)C(=O)N1CCC[C@H]1C(=O)N1CCC[C@H]1C(=O)N[C@H](C(=O)N[C@@H](CC(N)=O)C(=O)N[C@H](C(=O)NCC(=O)N[C@@H](CO)C(=O)N[C@@H](CC(N)=O)C(=O)N[C@H](C(=O)N[C@@H](Cc1ccc(O)cc1)C(N)=O)[C@@H](C)O)C(C)C)[C@@H](C)O` [Example 50, N-alpha-[(S)-4-Carboxy-4-(19-carboxynonadecanoylamino)butyryl]-[Glu14,Arg17]-pramlintide] ({C20 diacid-γGlu}-KCNTATCATQRLAEFLRHSSNNFGPILPPTNVGSNTY-NH2; disulfide 2-7 (inferred)) as the compound, how does the EC50 read?
Answer: Its EC50 is 0.459 nM.

Question: With `CC[C@H](C)[C@H](NC(=O)[C@@H]1CCCN1C(=O)CNC(=O)[C@H](Cc1ccccc1)NC(=O)[C@H](CC(N)=O)NC(=O)[C@H](CC(N)=O)NC(=O)[C@H](CO)NC(=O)[C@H](CO)NC(=O)[C@H](Cc1c[nH]cn1)NC(=O)[C@H](CCCNC(=N)N)NC(=O)[C@H](CC(C)C)NC(=O)[C@H](Cc1ccccc1)NC(=O)[C@H](CCC(=O)O)NC(=O)[C@H](C)NC(=O)[C@H](CC(C)C)NC(=O)[C@H](CCCNC(=N)N)NC(=O)[C@H](CCC(N)=O)NC(=O)[C@@H](NC(=O)[C@H](C)NC(=O)[C@@H]1CSSC[C@H](NC(=O)[C@H](CCCCN)NC(=O)[C@H](Cc2c[nH]cn2)NC(=O)CC[C@H](NC(=O)CCCCCCCCCCCCCCCCC(=O)O)C(=O)O)C(=O)N[C@@H](CC(N)=O)C(=O)N[C@@H]([C@@H](C)O)C(=O)N[C@@H](C)C(=O)N[C@@H]([C@@H](C)O)C(=O)N1)[C@@H](C)O)C(=O)N[C@@H](CC(C)C)C(=O)N1CCC[C@H]1C(=O)N1CCC[C@H]1C(=O)N[C@H](C(=O)N[C@@H](CC(N)=O)C(=O)N[C@H](C(=O)NCC(=O)N[C@@H](CO)C(=O)N[C@@H](Cc1c[nH]cn1)C(=O)N[C@H](C(=O)N[C@@H](Cc1ccc(O)cc1)C(N)=O)[C@@H](C)O)C(C)C)[C@@H](C)O` [Example 71, N-alpha-[(S)-4-Carboxy-4-(17-carboxyheptadecanoylamino)butyryl]-His-[Glu14,Arg17,His35]-pramlintide] ({C18 diacid-γGlu}-HKCNTATCATQRLAEFLRHSSNNFGPILPPTNVGSHTY-NH2; disulfide 3-8 (inferred); C-terminus assumed) as the compound, how does the EC50 read?
Answer: The EC50 was 0.947 nM.

Question: For `CC[C@H](C)[C@H](NC(=O)[C@@H]1CCCN1C(=O)CNC(=O)[C@H](Cc1ccccc1)NC(=O)[C@H](CC(N)=O)NC(=O)[C@H](CCC(N)=O)NC(=O)[C@H](CO)NC(=O)[C@H](CO)NC(=O)[C@H](Cc1c[nH]cn1)NC(=O)[C@H](Cc1c[nH]cn1)NC(=O)[C@H](CC(C)C)NC(=O)[C@H](Cc1ccccc1)NC(=O)[C@H](CCC(=O)O)NC(=O)[C@H](C)NC(=O)[C@H](CC(C)C)NC(=O)[C@H](CCCNC(=N)N)NC(=O)[C@H](CCC(N)=O)NC(=O)[C@@H](NC(=O)[C@H](C)NC(=O)[C@@H]1CSSC[C@H](NC(=O)[C@H](CCCCN)NC(=O)CC[C@H](NC(=O)CCCCCCCCCCCCCCCCCCC(=O)O)C(=O)O)C(=O)N[C@@H](CC(N)=O)C(=O)N[C@@H]([C@@H](C)O)C(=O)N[C@@H](C)C(=O)N[C@@H]([C@@H](C)O)C(=O)N1)[C@@H](C)O)C(=O)N[C@@H](CC(C)C)C(=O)N1CCC[C@H]1C(=O)N1CCC[C@H]1C(=O)N[C@H](C(=O)N[C@@H](CC(N)=O)C(=O)N[C@H](C(=O)NCC(=O)N[C@@H](CO)C(=O)N[C@@H](Cc1c[nH]cn1)C(=O)N[C@H](C(=O)N[C@@H](Cc1ccc(O)cc1)C(N)=O)[C@@H](C)O)C(C)C)[C@@H](C)O` [Example 117, N-alpha-[(S)-4-Carboxy-4-(19-carboxynonadecanoylamino)butyryl]-[Glu14,His17,Gln21,His35)-pramlintide] ({C20 diacid-γGlu}-KCNTATCATQRLAEFLHHSSQNFGPILPPTNVGSHTY-NH2; disulfide 2-7 (inferred); C-terminus assumed), which EC50 is on record?
Answer: The EC50 was 0.169 nM.
